Key:
iPS-β cells = experiment: Response of iPS-β cells to insulin secretagogues (c-peptide secretion); format: cell-based, human; settings: glibenclamide, exendin 4, and KCl
Protocol: Batch-mode GSIS assay was carried out as described below. An aliquot of the obtained human iPS-β cells was washed with LG-KRBH as described above. Then, the cells were incubated for 30 minutes or 1 hour in LG-HKRB buffer and subsequently incubated for the same time thereas in HG-HKRB buffer. In some experiments, after washing of the cells, the cells were dispensed into some aliquots and incubated for 1 hour in HG-HKRB buffer containing 0.01% DMSO or several types of insulin secretagogues. The C-peptide concentration of a sample was measured using alphaLISA C-peptide kit (PerkinElmer, AL299F) or C-peptide ELISA and corrected with the DNA content of the cells used in the GSIS assay.

Ff-I01s01 = experiment: Differentiation of Ff-I01s01 iPS cells, sphere culture, protocol #2; format: cell-based, human
Protocol: The FfI-01s01 cells were maintained as described above and then differentiated according to protocol #2. Briefly, the cells were dissociated with TrypLE Select, transferred at a concentration of 1×10^6 cells/mL in AK03N medium (Ajinomoto Co., Inc.) to a low-attachment 6-well plate, and cultured for 24 hours on a rotary shaker (95 rpm). Then, the medium was replaced with AK03N-based methionine-depleted medium KA01, and the cells were cultured for 5 hours. Then, the medium was replaced with M1-1 AKM medium, and the cells were cultured for 24 hours (stage 1-1). The cells were cultured for 2 days in M1-2 AKM medium (stage 1-2), subsequently cultured for 2 days in M2 AKM medium (stage 2-1), cultured for 2 days in S2 medium (stage 2-2), cultured for 2 days in S3 medium (stage 3), cultured for 5 days in S4 medium (stage 4), cultured for 4 days in S5-1 medium (stage 5-1), and cultured for 3 days in S5-2 medium (stage 5).
In the case of evaluating the effectiveness of a compound for a differentiation rate and a cell function, a test compound and a negative control ([…]), and immunostaining was carried out on days 14 (at the completion of stage 4) and 21 (at the completion of stage 5) in order to confirm an effect on positivity to insulin, NKX6.1, and PDX1. GSIS assay was carried out on day 21.
Immunocytochemistry was carried out according to a general protocol using the following antibodies: rabbit anti-MAFA (Abcam; ab26405; 1/100×), goat anti-PDX1 (R&D systems; AF2419; 1/100×), mouse anti-NKX6.1 (Developmental Studies Hybridoma Bank, University of Iowa; F64A6B4; 1/100×), guinea pig anti-INSULIN (Dako; IR002; 1/10×), mouse anti-INSULIN (Sigma-Aldrich; 12018; 1/1000×), rabbit anti-C-peptide (Cell Signaling; 4593; 1/100×), rabbit anti-GFP (MBL International Corp; 598; 1/1000×), and mouse anti-GLUCAGON (Sigma-Aldrich; G2654; 1/1000×). […]

RPChiPS771 iPSC = experiment: Differentiation of RPChiPS771 iPS cells, sphere culture, protocol #1; format: cell-based, human; settings: 0.25 μM, methionine depletion 5 hours
Protocol: (§1) The RPChipS771 cells were maintained as described above, and differentiated according to protocol #1. Briefly, on day 0, the cells were dissociated with TrypLE Select, transferred at a concentration of 1×10^6 cells/mL in Essential 8 medium to a low-attachment 6-well plate (Greiner, 657185), and cultured on a rotary shaker (95 rpm). On day 1, the medium was replaced with methionine-depleted medium KA01 (Ajinomoto), and the cells were cultured for 5 hours. The medium was replaced with differentiation medium 1 (DMEM (high glucose), L-Gln, NEAA, 0.01 mM β-mercaptoethanol, 100 ng/mL activin A, B27 supplement, 3 μM CHIR99021), and the cells were cultured for 1 day (stage 1-1). Then, the medium was replaced with medium 1 free from CHIR99021, and the cells were cultured for 2 days (stage 1-2). […]

Toe human iPS cells = experiment: Differentiation of Toe human iPS cells into iPS-β cells, monolayer culture, protocol #1; format: cell-based; settings: treatment from later stage of stage 3 to initial stage of stage 5
Protocol: The Toe human iPS cells were seeded in CellBIND 6-well (CORNING, CLS3335) cell culture plate coated with synthemax II, and differentiated into primitive gut tube cells by the previously described method (Shahjalal et al., 2014). The cells were dissociated with TrypLE Select (Thermo Fisher, 12563011) and cryopreserved in BanBanker (Nippon genetics) at a density of 1.0 to 2.0×10^7 cells/mL until use. One day before compound addition, the cells were thawed in a medium for stage 3 (DMEM (high glucose), 0.25 μM SANT1 (Wako, 197-16351), 0.1 μM LDN193189 (Stemgent, 04-0074), 10 μM SB431542, 2 μM retinoic acid, 1% B27-free serum supplement (Life Technologies, 17504044), and seeded at 150,000 cells per well in CellBIND 96-well (Corning, 3340) cell culture plated coated with synthemax II. The cells were cultured for 1 day in a medium for stage 3 containing a test compound or a negative control (0.01% DMSO). The cells were further cultured for 2 days and 1 day in media for stages 4 and 5, respectively, containing the test compound or the negative control. On the next day, the cells were fixed in 4% paraformaldehyde for analysis using a high-content imager.

[1] = test system: iPS-β cells (RpChiPSC771); experiment: GSIS function assay of iPS-β cells from sphere culture of RPChiPSC771, protocol #1; format: cell-based, human; settings: 1 μM, treatment between stages 3 and 4
Protocol: as §1
Batch-mode GSIS assay was carried out as described below. […] The C-peptide concentration of a sample was measured using alphaLISA C-peptide kit (PerkinElmer, AL299F) or C-peptide ELISA and corrected with the DNA content of the cells used in the GSIS assay.

## O=C1CCC(C(=O)Nc2ncc(-c3ccc(OC(F)(F)F)cc3)s2)n2cccc21 (centres unmarked) [Synthesis Example 9, 8-Oxo-N-[5-[4-(trifluoromethoxy)phenyl]thiazol-2-yl]-6,7-dihydro-5H-indolizine-5-carboxamide]
iPS-β cells
  c-peptide secretion by stimulation with insulin secretagogues: enhanced c-peptide secretion
Ff-I01s01; added in a time window including stage 3
  differentiation depending on time window of addition: enhance differentiation most effectively
Ff-I01s01; protocol #2, end of stage 4 and later
  differentiation into INSULIN+NKX6.1+, NKX6.1+PDX1+ double-positive and INSULIN+NKX6.1+PDX1+ triple-positive cells: enhanced differentiation
Ff-I01s01; treatment particularly in stages 3 to 5
  production of NKX6.1+ and INSULIN+NKX6.1+ double-positive cells: promoted the production
RPChiPS771 iPSC
  differentiation into INSULIN+PDX1+ double-positive cells: enhanced differentiation
Toe human iPS cells
  differentiation into iPS-β cells (INS+ cells): stronger efficacy than that of the original compound K-1
[1]
  glucose stimulated insulin secretion (GSIS) activity of obtained iPS-β cells: enhanced
  insulin secretion dynamics in step-wise time-course measurement: rapid first-phase insulin secretion and long-lasting second-phase insulin secretion
